In patent publication US20080287541A1, “Kit for Treatment of Cancer” (Redoxia Israel Ltd., priority 2004, published 2008):
Where “and” joins values, the source holds several entries; their conditions need not be identical. Identical values can stand only once.

Tests used:
various cell lines = details: BSO by itself; Dai et al. (1999); cited from earlier work
neuroblastoma cells = details: Nicole et al. (1998); cited from earlier work
[1] = tested on: MX-1 mammary carcinoma cells; test: 3H-Thymidine incorporation (proliferation) assay; format: cell-based, human; details: positive control, 10^−5 M doxorubicin; negative control = 100%
Description: Test compounds: Tested substances were dissolved in the appropriate medium as follows: carmustine (Sigma) was dissolved in ethanol, disulfiram (DSF) (Sigma) and curcumin (Fluka) were dissolved in dimethyl sulfoxide (DMSO), and DL-buthionine-sulfoximine (BSO) (Fluka) was dissolved in growth medium.
Compounds were added in a 1:10 serial dilution to the wells to obtain range of 10^−3 M to 10^−8 M final concentrations.
Controls: Positive control—10^−5M Doxorubicin. Negative control—Media containing the compound's solvent.
Cell lines: MX-1 mammary carcinoma cells were grown in RPMI-1640 medium, supplemented with 10% FBS, 2 mM L-glutamine, 1% penicillin/streptomycin and 1% non-essential amino acids.
MX-1 culturing and sub-culturing: MX-1 cells were grown in 75 cm^2 culture flasks. The culture medium was changed every other day and the day before the experiment. […]
Thymidine incorporation (proliferation) assay and cells harvesting: 24 hours after administering the compounds, to each well in the culture plates, ^3H-thymidine (NET-027 Thymidine [methyl-^3H] from NEN, 6.7 Ci/mmol) was added to final concentration of 0.4 μCi/well. […] Radioactivity was determined after adding 180 μl scintillation liquid (Microscint 20™, Packard).
Data calculation: The data represent the mean amount of thymidine counted per well (CPM). Average and standard deviation (SD) were calculated for each plate (12 wells). […]

Structure (SMILES) | decrease in [GSH] in the cell (various cell lines) [%] | decrease of GSH content (neuroblastoma cells) [%] | Cell proliferation rate [1]
CCCCS(=N)(=O)CCC(N)C(=O)O (racemic) [BSO, buthionine sulfoximine] | 70 | 98 | –
COc1cccc2c1C(=O)c1c(O)c3c(c(O)c1C2=O)C[C@@](O)(C(=O)CO)C[C@@H]3O[C@H]1C[C@H](N)[C@H](O)[C@H](C)O1 [doxorubicin, Doxorubicin] | – | – | 4-11% and 4%
